This is an account of results in patent publication US20190327974A1, “SYNERGISTS FOR IMPROVED PESTICIDES” (priority 2017, published 2019).

Common to all, as to assay type: biochemical
The target in assay [1] is T1, Trypsin (Bos taurus, UniProt P00760).
T1 construct: gene PRSS1
T1 sequence (P00760 24-246): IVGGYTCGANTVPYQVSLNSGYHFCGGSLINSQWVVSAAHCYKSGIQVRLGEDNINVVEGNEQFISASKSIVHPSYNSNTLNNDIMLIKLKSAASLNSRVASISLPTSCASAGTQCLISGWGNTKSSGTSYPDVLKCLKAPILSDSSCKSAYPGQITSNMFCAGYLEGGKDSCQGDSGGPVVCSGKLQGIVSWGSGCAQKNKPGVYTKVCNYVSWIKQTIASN
The assay is described as follows: Trypsin selectivity. The protocol: To characterize the selectivity of boronic acids 1 to 5, they were assayed against AChE, the target of OP and carbamate insecticides (Table 1) as well as trypsin and bacterial AmpC β-lactamase. […] The toxicity of the hits against two human cell lines was further assessed.
To characterize the selectivity of boronic acids 1 to 5, they were assayed against the target of OP insecticides, AChE, as well as trypsin and bacterial AmpC β-lactamase (Table 1). AChE and αE7 are homologous, sharing the α/β-hydrolase fold and the same catalytic machinery, however the topology of their binding pockets is dissimilar (Jackson, C. J. et al. Structure and function of an insect α-carboxylesterase (αEsterase7) associated with insecticide resistance. Proc. Natl. Acad. Sci. U.S.A. 110, 10177-82 (2013) and Correy, G. J. et al. Mapping the Accessible Conformational Landscape of an Insect Carboxylesterase Using Conformational Ensemble Analysis and Kinetic Crystallography. Structure 24, 1-11 (2016).). Both trypsin and AmpC β-lactamase contain an activated serine nucleophile and oxyanion hole, however trypsin contains a serine-histidine-aspartic acid (Hedstrom, L. Serine protease mechanism and specificity. Chem. Rev. 102, 4501-4523 (2002).) while AmpC β-lactamase contains a serine-tyrosine-lysine catalytic triad (Dubus, A., et al. The roles of residues Tyr150, Glu272, and His314 in class C β-lactamases. Proteins Struct. Funct. Genet. 25, 473-485 (1996).).

The target of assay [2] is Aedes aegypti CBE. Nature of the assay: Inhibition of insect CBEs, 4-NPB substrate. The following applies: n=3. The protocol:
(§1) Assays were performed with 4-NPB as the substrate.

In assay [3] the target is Anopheles gambiae CBE. Nature of the assay: Inhibition of insect CBEs, 4-NPB substrate. The following applies: n=3. Here is the method: as §1
In assay [4] the target is Culex quinquefasciatus CBE (Culex quinquefasciatus, UniProt Q23734). The assay is described as follows: Inhibition of insect CBEs, 4-NPB substrate. The following applies: n=3. The protocol: as §1
The target in assay [5] is T2, Factor-Xa (Homo sapiens, UniProt P00742).
T2 construct: Factor Xa; Calbiochem; B76791; purchased Calbiochem
Nature of the assay: Protease selectivity panel. The following applies: 100 μM compound, n = 2. The protocol: (§2) Test compounds were dissolved in 100% DMSO to make 10 mM stock. Final compound concentration in assay is […]. Compounds were tested in duplicate wells at single concentration and the final concentration of DMSO in all assays was kept at 1%. Five reference compounds, AEBSF, Carfilzomib, Granzyme B Inhibitor II, Dec-RVKR-CMK, and Teneligliptin hydrobromide, were tested in an identical manner with 8 concentration points at 5× dilutions.

The target in assay [6] is T3, Prolyl Oligopeptidase (Homo sapiens, UniProt P48147).
T3 construct: purchased R&D Systems
T3 sequence (P48147 1-710): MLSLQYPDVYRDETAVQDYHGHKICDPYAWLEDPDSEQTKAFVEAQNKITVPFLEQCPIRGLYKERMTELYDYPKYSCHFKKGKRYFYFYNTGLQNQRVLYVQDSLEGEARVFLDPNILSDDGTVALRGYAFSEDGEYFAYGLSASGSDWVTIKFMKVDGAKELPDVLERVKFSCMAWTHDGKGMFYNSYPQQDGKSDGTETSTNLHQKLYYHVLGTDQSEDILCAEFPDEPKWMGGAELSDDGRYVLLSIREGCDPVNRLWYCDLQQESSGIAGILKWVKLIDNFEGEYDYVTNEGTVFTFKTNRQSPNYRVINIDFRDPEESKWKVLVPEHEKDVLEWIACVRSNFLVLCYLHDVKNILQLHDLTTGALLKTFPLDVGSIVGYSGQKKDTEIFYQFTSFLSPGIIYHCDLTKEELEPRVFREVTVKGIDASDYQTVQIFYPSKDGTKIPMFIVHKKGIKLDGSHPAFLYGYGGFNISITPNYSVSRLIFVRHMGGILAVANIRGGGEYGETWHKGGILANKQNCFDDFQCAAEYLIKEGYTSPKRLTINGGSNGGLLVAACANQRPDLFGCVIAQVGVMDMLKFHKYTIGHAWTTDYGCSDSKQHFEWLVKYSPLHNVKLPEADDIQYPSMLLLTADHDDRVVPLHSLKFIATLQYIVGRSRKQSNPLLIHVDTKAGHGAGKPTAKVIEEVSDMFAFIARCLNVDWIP
The assay is described as follows: Protease selectivity panel. The following applies: 100 μM compound, n = 2. Here is the method:
as §2

The target in assay [7] is T4, GranzymeB (Homo sapiens, UniProt P10144).
T4 construct: purchased ENZO
Nature of the assay: Protease selectivity panel. The following applies: 100 μM compound, n = 2. Here is the method: as §2

The target of assay [8] is T5, Kallikrein11 (Homo sapiens, UniProt Q9UBX7).
T5 construct: purchased R&D Systems
T5 sequence (Q9UBX7 54-282): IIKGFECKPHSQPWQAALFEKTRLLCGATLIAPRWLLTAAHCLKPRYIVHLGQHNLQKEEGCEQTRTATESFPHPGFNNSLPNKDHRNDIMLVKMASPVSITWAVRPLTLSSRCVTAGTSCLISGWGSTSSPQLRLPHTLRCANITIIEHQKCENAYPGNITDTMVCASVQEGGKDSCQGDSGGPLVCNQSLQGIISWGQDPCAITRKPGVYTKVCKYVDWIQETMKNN
Nature of the assay: Protease selectivity panel. The following applies: 100 μM compound, n = 2. Here is the method: as §2

The target in assay [9] is T6, PSMB8 (Homo sapiens, UniProt P28062).
T6 construct: purchased BOSTON-BIOCHEM
The assay is described as follows: Protease selectivity panel. The following applies: 100 μM compound, n = 2. The protocol: as §2

For assay [10], the target named is T7, GranzymeK (Homo sapiens, UniProt P49863).
T7 construct: purchased ENZO
T7 sequence (P49863 27-264): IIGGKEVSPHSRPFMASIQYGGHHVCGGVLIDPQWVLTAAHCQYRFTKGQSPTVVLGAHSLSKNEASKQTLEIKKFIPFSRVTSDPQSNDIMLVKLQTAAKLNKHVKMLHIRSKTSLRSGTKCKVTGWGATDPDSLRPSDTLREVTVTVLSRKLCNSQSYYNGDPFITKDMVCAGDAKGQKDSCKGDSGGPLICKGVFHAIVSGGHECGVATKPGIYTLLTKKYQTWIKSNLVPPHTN
The assay is described as follows: Protease selectivity panel. The following applies: 100 μM compound, n = 2. Here is the method: as §2

Assay [11] has as its target T8, PSMB6 (Homo sapiens, UniProt P28072).
T8 construct: purchased BOSTON-BIOCHEM
The assay is described as follows: Protease selectivity panel. The following applies: 100 μM compound, n = 2. The protocol:
as §2

The target of assay [12] is T9, PSMB5 (Homo sapiens, UniProt P28074).
T9 construct: purchased BOSTON-BIOCHEM
The assay is described as follows: Protease selectivity panel. The following applies: 100 μM compound, n = 2. The protocol:
as §2

Structures are written as SMILES. pKi: −log10 of the molar value. Where only a bound is given, the exact number is not on record here.

One may read the pKi as the Ki on a negative log10 scale, so that one unit is a factor of ten. Read a low pKi as a large Ki. Turning to `Cc1ccc(B(O)O)cc1Br` [Compound 1], the pKi in assay [1] is under 4.00.
With `Cc1ccc(B(O)O)cc1OCc1ccccc1` [Compound 2], the pKi was under 4.00 in [1], 5.51 in assay [2], 6.77 in [3] and 5.62 in assay [4].
Consider `CC(C)Oc1cc(Br)cc(B(O)O)c1` [Compound 3.7, 3-Bromo-5-isopropoxyphenylboronic acid], for which the pKi in assay [2] was 5.59; in [3], 6.48; in assay [4], 6.05.
Usually inhibition stands for the relative decrease from the control value, in per cent. In the case of `OB(O)c1cc(Br)cc(OCc2ccccc2)c1` [Compound 3.9], the inhibition at 100 µM in assay [5] was 26%; in assay [6], 48%; in assay [7], 17%; in [8], -148%; in assay [9], 52%; in assay [10], 14%. For the same compound, the inhibition at 100 µM is 54% in assay [11] and 34% in [12].
As to `OB(O)c1cc(Br)cc(Oc2ccccc2)c1` [Compound 3.10, 3-Bromo-5-phenoxyfenylboronic acid], the inhibition at 100 µM in [5] was 35%; in [6], 30%; in assay [7], 11%; in assay [8], -43%; in assay [9], 49%; in [10], 3%. The inhibition at 100 µM stood at 27% in assay [11] and 2% in [12].
Consider `OB(O)c1cc(Br)cc(N2CCCC2)c1` [Compound 3], for which the pKi in assay [1] is under 4.00; in [2], 5.00; in [3], 6.10; in assay [4] it was 5.33. Further, the inhibition at 100 µM is 53% in assay [5]; 61% in [6]; 3% in assay [7]; -71% in assay [8]; 19% in assay [9]; 5% in assay [10]. In addition, the inhibition at 100 µM in [11] came to 16%; in [12], 3%.
`OB(O)c1ccc2ccccc2c1` [Compound 4] showed a pKi in [1] of under 5.00.
As for `OB(O)c1ccc(OCc2ccccc2F)c(Cl)c1` [Compound 5, 3-Chloro-4(2′-fluorobenzyloxy) phenylboronic acid], the pKi in assay [1] is under 4.00; in assay [2], 4.40; in assay [3], 7.52; in assay [4], 6.38.
